# Source: patent publication US20200072711A1, “FLUORESCENT ENDOPLASMIC RETICULUM TRACKERS FOR LIVE CELL IMAGING OF PATHOGENIC YEAST” (Ramot at Tel Aviv University Ltd., priority 2018, published 2020)
# Entries after “also recorded” stand apart in the source; their conditions may differ.
# What was measured:
# C. albicans ATCC 24433 = experiment: Minimal inhibitory concentration broth double-dilution assay; format: cell-based; settings: Candida albicans, ATCC24433, 24 h, 37° C., Casitone
# Description: (§1) Minimal inhibitory concentration broth double-dilution assay. All strains were tested using the double-dilution method in 96-well plates (Corning). Yeast strains were grown in Casitone growth medium. Starter cultures were incubated for 24 h (37° C., 5% CO2, aerobic conditions) and then diluted 1:100 into fresh medium. Compounds dissolved in ethanol or in DMSO were added to the casitone broth to form the mother liquor (32 μL stock solution in 1218 μL of casitone) at the starting concentration of 64 μg/mL. Next, 100 μL of serial double dilutions of compounds in Casitone ([…], and 0.007 μg/mL) were prepared in flat-bottomed 96-well microplates (Corning). Control wells with no compounds, and wells without yeast cells containing each tested concentration of the compounds (blanks), were also prepared. An equal volume (100 μL) of yeast suspensions in Casitone broth that was prepared as follows: 900 mL doubly distilled H2O, 9 g Casitone (bacto-casitone), 5 g yeast extract, 11.5 g sodium citrate dihydrate, 20 g glucose. The yeast suspension was added to each well for a final volume of 200 μL. The ethanol or the DMSO concentrations ranged from 0.0012% to 1.3%. The final inoculum was between 5×10^4 colony-forming unit (CFU)/mL and 5×10^5 CFU/mL; identical results were obtained when using 5×10^3 CFU/mL as a final inoculum. After incubation for 24 h at 37° C. in 5% CO2, MTT (3-[4,5-dimethylthiazole-2-yl]-2,5-diphenyltetrazolium bromide; 50 μL of a 1 mg/mL solution in H2O) was added to each well followed by additional incubation at 37° C. for 2 h. Each concentration was tested in triplicate, and results were confirmed by two independent sets of experiments.
# C. albicans SN152 [1] = experiment: as above; format: cell-based; settings: Candida albicans, 24 h, 37° C., Casitone
# Description: as §1
# C. glabrata ATCC 2001 = experiment: as above; format: cell-based, Candida glabrata; settings: Nakaseomyces glabratus, ATCC2001, 24 h, 37° C., Casitone
# Description: as §1
# C. glabrata ATCC 66032 = experiment: as above; format: cell-based, Candida glabrata; settings: Nakaseomyces glabratus, ATCC66032, 24 h, 37° C., Casitone
# Description: as §1
# [2] = tested on: all tested Candida strains; experiment: MIC assay, over the panel; format: cell-based
# Description: as §1, with “The final inoculum was between 5×10^4 colony-forming unit (CFU)/mL and 5×10^5 CFU/mL; identical results were obtained when using 5×10^3 CFU/mL as a final inoculum. After incubation for 24 h at 37° C. in 5% CO2, MTT (3-[4,5-dimethylthiazole-2-yl]-2,5-diphenyltetrazolium bromide; 50 μL of a 1 mg/mL solution in H2O) was added to each well followed by additional incubation at 37° C. for 2 h. Each concentration was tested in triplicate, and results were confirmed by two independent sets of experiments.” left out
# The ER-labeling properties were evaluated by incubating the compounds with representative strains of C. albicans and C. glabrata. […]
# [3] = Absorption and emission spectra of fluorescent probes; format: physicochemical; settings: 10 μM in PBS, pH=7.4; for emission maxima: excitation at 420 nm
# Description: FIGS. 4A-4F show absorption and emission spectra of probes 1-6 (10 μM in PBS, pH=7.4), respectively. Emission spectrum was measured after excitation at 420 nm.
# General chemistry methods and instrumentation. ^1H-NMR spectra (including 1D-TOCSY) were recorded on BrukerAvance™ 400 or 500 MHz spectrometers, and chemical shifts (reported in ppm) were calibrated to CDCl3 (d=7.26) when CDCl3 was the solvent, or to CD3OD (d=3.31) when CD3OD was the solvent. ^13C-NMR spectra were recorded on BrukerAvance™ 400 or 500 MHz spectrometers at 100 or 125 MHz. ^19F-NMR spectra were recorded on BrukerAvance™ 400 or 500 MHz spectrometers at 375 or 470 MHz. Multiplicities are reported using the following abbreviations: b=broad, s=singlet, d=doublet, t=triplet, q=quartet. Coupling constants (J) are given in Hertz. HRESI mass spectra were measured on a Waters Synapt instrument. Chemical reactions were monitored by TLC (Merck, Silica gel 60 F254). Visualization was achieved using a cerium molybdate stain (5 g (NH4)2Ce(NO3)6, 120 g (NH4)6Mo7O24·4H2O, 80 mL H2SO4, 720 mL H2O) or with UV lamp. Unless otherwise stated, all chemicals were obtained from commercial sources. Compounds were purified using Geduran® Si 60 chromatography (Merck). The SpectraMax i3x Platform spectrophotometer from Molecular Devices was used for the measurement of the excitation and absorbance spectra of the fluorescent probes.
# We first measured the absorption and emission spectra of fluorescent probes 1-6. […] This 70-nm redshift effect is attributed to the effect of the halogen atoms in the phenyl ring segment of these molecules: a difluorophenyl ring in probe 2 and a dichlorophenyl in probe 3.
# [4] = tested on: tested panel of Candida strains; experiment: Live cell imaging, ER labeling; format: cell-based; settings: panel of Candida strains (C. albicans and C. glabrata)
# Description: (§2) Growth conditions for live cell imaging. Cells were grown to log phase in liquid YPD overnight at 30° C. in a 10 ml tube. Cells were diluted 1:10 and then incubated for 2 h at 30° C. to log phase.
# (§3) Cell staining. The fluorescent probes were added to a final concentration of 10 μM for probes 1-6 to cells from a log phase culture grown in YPD broth media at 30° C. Cells were then incubated in the dark for a total of 60 min. Before imaging, cells were washed once with PBS buffer. For ER-tracker dyes, DiOC6 (1 μg/mL) and BODIPY™ TR Glibenclamide (1 μM), staining cells were incubated in a prepared Hanks' Balanced Salt Solution at 37° C. for 5 min and 30 min, respectively. For ER-tracker Blue-White DPX (1 μM), staining cells were incubated in YPD for 30 min at 30° C. For mitochondrial staining the previously reported Cy5-based mitochondrial dye was used (1 μg/mL). For staining, cells were incubated in YPD in the presence of dye for 5 min at 30° C. Cells were then washed with PBS buffer once.
# Live cell imaging. Candida cells were resuspended in PBS buffer and 2 μL were placed on a glass slides and covered with glass coverslips. C. glabrata (ATCC 2001) cells treated with probes 1-6, all tested Candida cells treated with ER-tracker Blue-White DPX and inter-organelle interaction study were imaged on a MORE imaging system (TILL Photonics GmbH) with an Olympus UPlanApo 100X 1.3 NA oil immersion objective. The bandpass filter sets used to image probes 1-3 were excitation 427/10 nm and emission 510/20 nm. The bandpass filter sets used to image probes 4-6 were excitation 485/20 nm and emission 525/30 nm. The bandpass filter sets used to image ER-tracker Blue-White DPX were excitation 390/40 nm and emission 525/30 nm. The bandpass filter sets used to image Cy5-based mitochondrial dye were excitation 560/25 nm and emission 684/24 nm. C. albicans cells (ATCC 24433 and SN152) and C. glabrata (ATCC 66032) treated with probes 1-6 were imaged on a Nikon Ti microscope equipped with a Plan Apo VC 100X oil objective and a Zyla 5.5 sCMOS camera (Andor) run by NIS elements Ar software. The bandpass filter sets used to image probes 1-3, and DiOC6-stained cells were excitation 440 nm and emission 480/40 nm. The bandpass filter sets used to image cells treated with probes 4-6, excitation 470 nm and emission 525/50 nm were used. For Eno1-mCherry, excitation 585 nm and emission 630/75 nm were used. To optimize the probes, the effects of the concentration (1, 5 and 10 μM), incubation time (5, 30, 60 and 120 min) and media (YPD and HBSS) were investigated. Images were processed using ImageJ program. The smoothed imaged were generated using the convolve filter (Normalize Kernel).
# C. albicans cells = experiment: Live cell imaging, ER labeling; format: cell-based, Candida albicans
# Description: as §2, §3
# (§4) Live cell imaging. Candida cells were resuspended in PBS buffer and 2 μL were placed on a glass slides and covered with glass coverslips. […]
# C. glabrata strains = experiment: Live cell imaging, ER labeling; format: cell-based, Candida glabrata; settings: C. glabrata yeast cells
# Description: as §2, §3, §4
# [5] = commercial ER-trackers; cited from earlier work
# C. albicans SN152 [6] = experiment: Live cell imaging, ER labeling; format: cell-based, Candida albicans
# Description: as §2, §3, §4
Compound,MIC (C. albicans ATCC 24433) [µg/mL],MIC (C. albicans SN152 [1]) [µg/mL],MIC (C. glabrata ATCC 2001) [µg/mL],MIC (C. glabrata ATCC 66032) [µg/mL],staining pattern [4],also measured
CCN(CC)c1ccc2cc(C(=O)NCC(O)(Cn3ccnn3)c3ccc(F)cc3F)c(=O)oc2c1 (stereo not drawn) [Probe 2],> 64,> 64,> 64,> 64,the distinct nuclear envelope and cortical structure of the ER were clearly observed,MIC [2]: ≥ 64 µg/mL; absorption spectrum maxima [3]: 430 nm; emission maxima [3]: 480 nm
COC(=O)CCC1=[N+]2C(=Cc3c(C)cc(C)n3[B-]2(F)F)C=C1 [BODIPY-methyl ester],,,,,the entire cytoplasm was labeled in a non-specific pattern,
"OC(Cn1cncn1)(Cn1cncn1)c1ccc(F)cc1F [FLC, fluconazole, reference compound]",0.5,0.5,64,64,,
"CCC(C)n1ncn(-c2ccc(N3CCN(c4ccc(OCC5COC(Cn6cncn6)(c6ccc(Cl)cc6Cl)O5)cc4)CC3)cc2)c1=O (stereo not drawn) [ITR, itraconazole, reference compound]",0.015,0.007,4,0.5,,
CCN(CC)c1ccc2cc(C(=O)NCC(O)(Cn3ccnn3)c3ccc(Cl)cc3Cl)c(=O)oc2c1 (stereo not drawn) [Probe 3],> 64,> 64,> 64,> 64,the distinct nuclear envelope and cortical structure of the ER were clearly observed,MIC [2]: ≥ 64 µg/mL; absorption spectrum maxima [3]: 430 nm; emission maxima [3]: 550 nm
CCN(CC)c1ccc2cc(C(=O)NCC(O)(Cn3cncn3)c3ccc(F)cc3F)c(=O)oc2c1 (stereo not drawn) [Probe 1],0.03,0.007,16,8,,
CN(C)c1ccc(-c2cnc(-c3ccc(S(=O)(=O)NCCNC(=O)c4c(F)c(F)c(F)c(F)c4F)cc3)o2)cc1 [Blue-White DPX],,,,,"stained Candida glabrata cells only; also recorded: non-specific labeling of additional intracellular compartments, such as lipid droplets, was observed",staining pattern (C. albicans cells): non-specific staining of the cytoplasm; staining pattern (C. glabrata strains): label the ER; also recorded: a circular pattern around the nuclear envelope with peripheral cortical extensions reminiscent of the ER structure was clearly visible; emission (em) [5]: 430-640 nm; excitation (ex) [5]: 374 nm
"CCOC(=O)c1cc2ccc(N(CC)CC)cc2oc1=O [ethyl ester of 7-(diethyl)-aminocoumarin, 7-(diethyl)-aminocoumarin ethyl ester]",,,,,did not stain the yeast cell interior of any of the tested Candida strains,
"CCCCCCN1C(=CC=Cc2oc3ccccc3[n+]2CCCCCC)Oc2ccccc21.[I-] [DiOC6, 3,3′-dihexyloxacarbocyanine iodide]",,,,,"more significant in C. albicans than in C. glabrata yeast cells; also recorded: non-specific labeling of additional intracellular compartments, such as lipid droplets, was observed",staining pattern (C. albicans SN152 [6]): non-specific staining of other cellular compartments such as lipid droplets was also observed; emission (em) [5]: 500 nm; excitation (ex) [5]: 480 nm
